# Laboratory results taken from US10842796B2, “Treatment of dementia” (WisTa Laboratories Ltd., priority 2016, dated 2020).
# Like-named read-outs stand apart in the source and are kept apart here.
# Key:
# [1] = system: behavioural variant frontotemporal dementia (bvFTD); settings: for ACE-R treatment effect mean (se) / FAQ treatment effect mean (se) / Fronto-temporal volume treatment effect mean (se): wrt 4 mg b.i.d. alone
# Protocol: (1) Addenbrooke's Cognitive Examination—revised (ACE-R) and (2) Functional Activities Questionnaire [FAQ] or MRI (with Bonferroni Holme correction)
# The effect of co-medication with symptomatic AD treatments which modify synaptic neurotransmission in the brain (acetylcholinesterase inhibitors or the NMDA antagonist “memantine”) was assessed. For brevity these treatments may be referred to as “AChEI/Mem” below.
# [2] = compatibility of LMTM tablets with AD treatments (HPLC recovery of LMT and MT); format: physicochemical
# Protocol: The effect of combining tablets of galantamine, memantine, donepezil or rivastigmine independently with LMTM was studied and LMTM was analysed in the resultant mixture.
# One LMTM tablet (100 mg) was added to a degassed 200 ml amber volumetric flask along with one prescription dose of each of the test drugs, as indicated in the table below, and 100 ml of diluent (degassed 0.1% formic acid). Flasks were given an argon headspace and shaken on a wrist action shaker for 40 minutes at 250 oscillations/min. Samples were then diluted to the graduation mark with diluent, given an argon headspace and inverted to mix. Subsamples of the resulting solution were centrifuged at 13,000 rpm for 5 minutes to remove any undissolved excipients and the supernatant placed in an amber HPLC vial and injected into a high performance liquid chromatography (HPLC) system (Agilent 1260) to separate LMT and MT. LMT and MT peaks were identified by absorbance at 255 nm with retention times of 5.5 and 14 minutes, respectively (FIG. 11).
# [3] = 14-day and 25-day repeat-dose studies in healthy volunteers (discoloration); format: in vivo, human; settings: 4 mg BID lowest dose with comparable discoloration
# TDP-43 aggregates = settings: 0.05 μM MT; SH-SYSY cells; cited from earlier work
# [4] = 4 mg b.i.d. versus 100 mg b.i.d.
# [5] = ANCOVA model, 4 mg b.i.d. as add-on to AChEI/Mem
# [6] = ANCOVA model, 100 mg b.i.d. alone
# [7] = ANCOVA model, 100 mg b.i.d. as add-on to AChEI/Mem
# [8] = MMRM model, 4 mg b.i.d. as add-on to AChEI/Mem
# [9] = MMRM model, 100 mg b.i.d. alone
# [10] = MMRM model, 100 mg b.i.d. as add-on to AChEI/Mem
# [11] = 100 mg LMTM + 6 mg rivastigmine
# [12] = 100 mg LMTM + 12 mg galantamine
# [13] = 100 mg LMTM tablet, no addition, HPLC 255 nm
compound,measurement,setting,value
"CN(C)c1ccc2c(c1)Sc1cc(N(C)C)ccc1N2 [LMTM, leuco-methylthioninium bis(hydromethanesulfonate)]",decline on ACE-R and MMSE compared with historical controls,[1]; 4 mg b.i.d. and 100 mg b.i.d.,significantly less than historical controls
same,"ADCS-CGIC, FRS, MMSE, UPDRS (safety outcome)",[1]; [4],no difference
same,"primary analysis models for ACE-R, FAQ and Whole Brain Volume",[1]; [4],no difference
same,"12 m change in MMSE (decline), present study",[1]; 4 mg bd,3.4 ± 0.5
same,"12 month change in ACE-R (decline), present study",[1]; 4 mg bd,10.4 ± 1.4
same,"12 m change in MMSE (decline), present study",[1]; 100 mg bd,3.0 ± 0.7
same,"12 month change in ACE-R (decline), present study",[1]; 100 mg bd,10.7 ± 1.4
same,ACE-R treatment effect mean (se),[1]; [5],6.52 (2.42)
same,FAQ treatment effect mean (se),[1]; [5],2.15 ± 1.21
same,Fronto-temporal volume treatment effect mean (se),[1]; [5],356 (237)
same,ACE-R treatment effect mean (se),[1]; [6],1.35 (1.71)
same,FAQ treatment effect mean (se),[1]; [6],−0.11 ± 0.87
same,Fronto-temporal volume treatment effect mean (se),[1]; [6],−98 (173)
same,ACE-R treatment effect mean (se),[1]; [7],9.69 (2.73)
same,FAQ treatment effect mean (se),[1]; [7],1.90 ± 1.37
same,Fronto-temporal volume treatment effect mean (se),[1]; [7],481 (258)
same,ACE-R treatment effect mean (se),[1]; [8],7.17 ± 3.25
same,FAQ treatment effect mean (se),[1]; [8],2.08 ± 1.31
same,Fronto-temporal volume treatment effect mean (se),[1]; [8],240 (291)
same,ACE-R treatment effect mean (se),[1]; [9],−1.12 ± 2.28
same,FAQ treatment effect mean (se),[1]; [9],−0.03 ± 0.92
same,Fronto-temporal volume treatment effect mean (se),[1]; [9],−4 (207)
same,ACE-R treatment effect mean (se),[1]; [10],5.65 ± 3.57
same,FAQ treatment effect mean (se),[1]; [10],2.36 ± 1.45
same,Fronto-temporal volume treatment effect mean (se),[1]; [10],278 (313)
same,safety profile,[1]; data not shown,raised no major concerns
same,"FAQ, MMSE and fronto-temporal volume, LMTM in combination with AD treatments versus LMTM alone",[1]; post hoc exploratory analyses,directionally supportive benefits
same,"ACE-R, LMTM in combination with off-label AD treatments (AChEI/Mem) versus LMTM alone",[1]; post hoc exploratory analyses with AD-comedication status and severity as covariates,significant benefits
same,LMT (% difference from control*),[2]; [11],5.64%
same,LMT (area),[2]; [11],23302.4 area
same,MT (% difference from control*),[2]; [11],2.14%
same,MT (area),[2]; [11],320.6 area
same,LMT (% difference from control*),[2]; 100 mg LMTM + 10 mg donepezil,−2.58%
same,LMT (area),[2]; 100 mg LMTM + 10 mg donepezil,22058.4 area
same,MT (% difference from control*),[2]; 100 mg LMTM + 10 mg donepezil,−6.58%
same,MT (area),[2]; 100 mg LMTM + 10 mg donepezil,313.9205 area
same,LMT (% difference from control*),[2]; 100 mg LMTM + 10 mg memantine,2.19%
same,LMT (area),[2]; 100 mg LMTM + 10 mg memantine,22642.3 area
same,MT (% difference from control*),[2]; 100 mg LMTM + 10 mg memantine,1.10%
same,MT (area),[2]; 100 mg LMTM + 10 mg memantine,336 area
same,LMT (% difference from control*),[2]; [12],−1.37%
same,LMT (area),[2]; [12],22157.4 area
same,MT (% difference from control*),[2]; [12],−14.90%
same,MT (area),[2]; [12],332.3 area
same,LMT (area),[2]; [13],22465.7 area
same,MT (area),[2]; [13],390.5473 area
same,amount of oxidised MT after mixing,[2]; after mixing with any of the AChEIs or memantine,not increased
same,LMTM found in the oxidised form,[2]; following HPLC analysis,Less than 2%
same,urine and stool discoloration,[3],associated with urine and stool discoloration
Methylthioninium [MT],reduction of number of intracellular TDP-43 aggregates,TDP-43 aggregates,50%
